{
  "source": "patent USRE48461E1",
  "about": "“Modulation of androgen receptor expression” (Ionis Pharmaceuticals, Inc., priority 2012, dated 2021)",
  "format_in_all_cases": "cell-based, human",
  "key": {"[1]": {"test_system": "TMPRSS2 mRNA", "assay": "TMPRSS2 mRNA levels in LMR20 cells", "details": "with or without DHT/R1881", "method": "LMR20 cells were plated at 1,500 cells per well in phenol red-free medium with CSS."}, "[2]": {"test_system": "LMR20 cells", "assay": "Proliferation of MDV3100-resistant LMR20 cells (MTT; with R1881 or DHT)", "details": "5 days", "method": "LMR20 cells were plated at 1,500 cells per well in phenol red-free medium with charcoal-stripped fetal bovine serum (CSS), to remove any androgens from the medium (Life Technologies). […] The synthetic androgen agonist, R1881, (Takeda, A. N. et al., Mol. Pharmacol. 2007. 71: 473-82) was added on day 1 at 1 nM dose to a set of cells also treated with each of the antisense oligonucleotides. DHT was added on day 1 at a dose of 10 nM to another set of cells also treated with each of the antisense oligonucleotides. […] After a treatment period of 5 days, the proliferative ability of the cancer cells was measured by the standard MTT assay. Results are presented in Table 42 as percent inhibition of proliferation, relative to non-treated cells."}, "[3]": {"test_system": "PSA mRNA", "assay": "PSA expression in C4-2 cells", "details": "48 hrs; for Percent inhibition of PSA expression: C4-2 cells, CSS + DHT medium", "method": "Cells were plated at 1,000 cells per well. […] After an incubation period of 48 hrs, RNA levels of AR, PSA and TMPRSS2 were measured.\nCells were plated at 2,000 cells per well and cultured in CSS media with 1 nM DHT. […] After an incubation period of 48 hrs, RNA levels of AR, PSA and TMPRSS2 were measured."}, "[4]": {"test_system": "PSA mRNA", "assay": "PSA expression in 22RV1 cells", "details": "RNAiMax, 48 hrs", "method": "Cells were plated at 1,000 cells per well. […] After an incubation period of 48 hrs, RNA levels of full length AR, the V7 variant, PSA and TMPRSS2 were measured.\nAfter an incubation period of 48 hrs, RNA levels of full length AR, the V7 variant, PSA and TMPRSS2 were measured.\nCells were plated at 2,000 cells per well and cultured in CSS media for 16 hours. […] After 4 hrs, 1 nM DHT was added. […] After an incubation period of 48 hrs, RNA levels of AR, AR V7 variant, PSA and TMPRSS2 were measured."}, "[5]": {"test_system": "AR mRNA", "assay": "AR RNA expression in C4-2B cells (complete, CSS+DHT medium; Example 30)", "details": "48 hrs", "method": "Cells were plated at 1,000 cells per well. […] ISIS 549148 was included as a negative control. […] After an incubation period of 48 hrs, RNA levels of AR, PSA and TMPRSS2 were measured.\nCells were plated at 2,000 cells per well and cultured in CSS media with 1 nM DHT. […] ISIS 549148 was included as a negative control. […] After an incubation period of 48 hrs, RNA levels of AR, PSA and TMPRSS2 were measured. In the absence of DHT, AR expression in C4-2 cells was 188%, PSA expression was 43% and TMPRSS2 expression was 27% compared to the untreated control."}, "[6]": {"test_system": "C4-2B cells", "assay": "C4-2B cell proliferation (complete or CSS+DHT medium; Example 30)", "details": "5 days; for Proliferation (% untreated control): C4-2B cells", "method": "After a treatment period of 5 days in complete medium or CSS+1 nM DHT medium, the proliferative capacity of the cancer cells was measured with using CellTiter 96® AQueous One or CellTiter-Glo® Solution Cell Proliferation kit (Promega), following the manufacturer's instructions."}, "[7]": {"test_system": "22RV1 cells", "assay": "22RV1 cell proliferation (Example 32)", "details": "5 days; for Proliferation (% untreated control): 22RV1 cells, complete medium", "method": "After a treatment period of 5 days in complete medium, the proliferative capacity of the cancer cells was measured with using CellTiter 96® AQueous One or CellTiter-Glo® Solution Cell Proliferation kit (Promega), following the manufacturer's instructions. […] Treatment with ISIS oligonucleotides in CSS+DHT medium reduced the proliferative capacity to a greater extent than treatment with MVD-3100. The proliferative capacity of cells cultured in CSS medium without DHT is 12% of untreated control levels."}},
  "data": [
    {"sequence": "TGATTTAATGGTTGCA [ISIS 569236] (cEt/MOE gapmer chemistry, further chemistry not given here) [targets intron 1]", "values": [
      {"measurement": "TMPRSS2 mRNA levels in LMR20 cells", "setting": "[1]", "result": "reduced PSA levels and TMPRSS2 more extensively than the LNA gapmer ISIS 554221 or MDV3100"},
      {"measurement": "Percent inhibition of LMR20 cell proliferation", "setting": "[2]; CSS + DHT, ASO 0.04 μM", "result": 0, "unit": "%"},
      {"measurement": "Percent inhibition of LMR20 cell proliferation", "setting": "[2]; CSS + DHT, ASO 0.20 μM", "result": 10, "unit": "%"},
      {"measurement": "Percent inhibition of LMR20 cell proliferation", "setting": "[2]; CSS + DHT, ASO 1.0 μM", "result": 32, "unit": "%"},
      {"measurement": "Percent inhibition of LMR20 cell proliferation", "setting": "[2]; CSS + DHT, ASO 5.0 μM", "result": 57, "unit": "%"},
      {"measurement": "Percent inhibition of LMR20 cell proliferation", "setting": "[2]; CSS + R1881, ASO 0.04 μM", "result": 0, "unit": "%"},
      {"measurement": "Percent inhibition of LMR20 cell proliferation", "setting": "[2]; CSS + R1881, ASO 0.20 μM", "result": 2, "unit": "%"},
      {"measurement": "Percent inhibition of LMR20 cell proliferation", "setting": "[2]; CSS + R1881, ASO 1.0 μM", "result": 34, "unit": "%"},
      {"measurement": "Percent inhibition of LMR20 cell proliferation", "setting": "[2]; CSS + R1881, ASO 5.0 μM", "result": 61, "unit": "%"},
      {"measurement": "Percent inhibition of LMR20 cell proliferation", "setting": "[2]; CSS, ASO 0.04 μM", "result": 0, "unit": "%"},
      {"measurement": "Percent inhibition of LMR20 cell proliferation", "setting": "[2]; CSS, ASO 0.20 μM", "result": 10, "unit": "%"},
      {"measurement": "Percent inhibition of LMR20 cell proliferation", "setting": "[2]; CSS, ASO 1.0 μM", "result": 0, "unit": "%"},
      {"measurement": "Percent inhibition of LMR20 cell proliferation", "setting": "[2]; CSS, ASO 5.0 μM", "result": 12, "unit": "%"},
      {"measurement": "LMR20 cell proliferation", "setting": "[2]; in the presence of R1881 or DHT, 0.04-5.0 μM", "result": "significantly inhibited MDV3100-resistant prostate cancer cell proliferation in a dose dependent manner more extensively than ISIS 554221"},
      {"measurement": "Percent inhibition of PSA expression", "setting": "[3]; 0.04 μM", "result": 0, "unit": "%"},
      {"measurement": "Percent inhibition of PSA expression", "setting": "[3]; 0.2 μM", "result": 4, "unit": "%"},
      {"measurement": "Percent inhibition of PSA expression", "setting": "[3]; 1 μM", "result": 57, "unit": "%"},
      {"measurement": "Percent inhibition of PSA expression", "setting": "[3]; 5.0 μM", "result": 64, "unit": "%"},
      {"measurement": "Percent inhibition of PSA expression in C4-2 cells cultured in complete medium", "setting": "[3]; 0.04 μM", "result": 35, "unit": "%"},
      {"measurement": "Percent inhibition of PSA expression in C4-2 cells cultured in complete medium", "setting": "[3]; 0.2 μM", "result": 62, "unit": "%"},
      {"measurement": "Percent inhibition of PSA expression in C4-2 cells cultured in complete medium", "setting": "[3]; 1 μM", "result": 83, "unit": "%"},
      {"measurement": "Percent inhibition of PSA expression in C4-2 cells cultured in complete medium", "setting": "[3]; 5.0 μM", "result": 88, "unit": "%"},
      {"measurement": "Percent inhibition of PSA expression", "setting": "[4]; CSS + DHT medium, 1.34 nM", "result": 28, "unit": "%"},
      {"measurement": "Percent inhibition of PSA expression", "setting": "[4]; CSS + DHT medium, 4.0 nM", "result": 49, "unit": "%"},
      {"measurement": "Percent inhibition of PSA expression", "setting": "[4]; CSS + DHT medium, 13.4 nM", "result": 70, "unit": "%"},
      {"measurement": "Percent inhibition of PSA expression", "setting": "[4]; complete medium, 1.34 nM", "result": 0, "unit": "%"},
      {"measurement": "Percent inhibition of PSA expression", "setting": "[4]; complete medium, 4.0 nM", "result": 17, "unit": "%"},
      {"measurement": "Percent inhibition of PSA expression", "setting": "[4]; complete medium, 13.4 nM", "result": 25, "unit": "%"},
      {"measurement": "Percent inhibition of PSA expression", "setting": "[4]; complete medium, 40 nM", "result": 7, "unit": "%"},
      {"measurement": "Percent expression of AR", "setting": "[5]; CSS + DHT medium, 0.04 μM", "result": 67, "unit": "%"},
      {"measurement": "Percent expression of AR", "setting": "[5]; CSS + DHT medium, 0.2 μM", "result": 49, "unit": "%"},
      {"measurement": "Percent expression of AR", "setting": "[5]; CSS + DHT medium, 1 μM", "result": 24, "unit": "%"},
      {"measurement": "Percent expression of AR", "setting": "[5]; CSS + DHT medium, 5.0 μM", "result": 19, "unit": "%"},
      {"measurement": "Percent expression of AR", "setting": "[5]; complete medium, 0.04 μM", "result": 61, "unit": "%"},
      {"measurement": "Percent expression of AR", "setting": "[5]; complete medium, 0.2 μM", "result": 23, "unit": "%"},
      {"measurement": "Percent expression of AR", "setting": "[5]; complete medium, 1 μM", "result": 20, "unit": "%"},
      {"measurement": "Percent expression of AR", "setting": "[5]; complete medium, 5.0 μM", "result": 16, "unit": "%"},
      {"measurement": "Proliferation (% untreated control)", "setting": "[6]; CSS + DHT medium, 0.04 μM", "result": 109, "unit": "% untreated control"},
      {"measurement": "Proliferation (% untreated control)", "setting": "[6]; CSS + DHT medium, 0.2 μM", "result": 109, "unit": "% untreated control"},
      {"measurement": "Proliferation (% untreated control)", "setting": "[6]; CSS + DHT medium, 1 μM", "result": 67, "unit": "% untreated control"},
      {"measurement": "Proliferation (% untreated control)", "setting": "[6]; CSS + DHT medium, 5.0 μM", "result": 39, "unit": "% untreated control"},
      {"measurement": "Proliferation (% untreated control)", "setting": "[6]; complete medium, 0.04 μM", "result": 98, "unit": "% untreated control"},
      {"measurement": "Proliferation (% untreated control)", "setting": "[6]; complete medium, 0.2 μM", "result": 64, "unit": "% untreated control"},
      {"measurement": "Proliferation (% untreated control)", "setting": "[6]; complete medium, 1 μM", "result": 55, "unit": "% untreated control"},
      {"measurement": "Proliferation (% untreated control)", "setting": "[6]; complete medium, 5.0 μM", "result": 48, "unit": "% untreated control"},
      {"measurement": "proliferation of C4-2B cells", "setting": "[6]; complete medium or CSS+1 nM DHT", "result": "reduced proliferation of the cells in a dose dependent compared to the control"},
      {"measurement": "Proliferation (% untreated control)", "setting": "[7]; 1.34 nM", "result": 92, "unit": "% untreated control"},
      {"measurement": "Proliferation (% untreated control)", "setting": "[7]; 4.0 nM", "result": 53, "unit": "% untreated control"},
      {"measurement": "Proliferation (% untreated control)", "setting": "[7]; 13.4 nM", "result": 20, "unit": "% untreated control"},
      {"measurement": "Proliferation (% untreated control)", "setting": "[7]; 40 nM", "result": 7, "unit": "% untreated control"},
      {"measurement": "proliferation of 22RV1 cells", "setting": "[7]", "result": "reduced proliferation of the cells in a dose dependent compared to the control"}
    ]}
  ]
}
